In patent publication US8592564B2, “Immunoassays for lamotrigine” (Seradyn, Inc., priority 2004, dated 2013):

Tested on: anti-lamotrigine antibody
Experiment: Cross-reactivity of polyclonal antibody with lamotrigine metabolites
Type: binding
Settings: 500 μg/mL spiked into human serum
Procedure: A polyclonal antisera is obtained and an assay is performed in order to determine the amount of cross-reactivity of the polyclonal antibody with lamotrigine and lamotrigine metabolites. A known amount of lamotrigine is used to react with an anti-lamotrigine antibody prepared in accordance with the present invention. The known concentration of lamotrigine is used to calculate the amount of cross-reactivity between the antibody preparation and the metabolites as follows: N-methyl (29); N-oxide (30); and N-2 gluronide (31). The percent of cross-reactivity equals 100 times the observed concentration of lamotrigine in μg/mL, which is then divided by the concentration of added metabolites in μg/mL. No cross-reactivity is observed in specimens containing those metabolites. High concentrations of these compounds are spiked into human serum and tested as samples. The metabolites are assayed and compared to control serum (no lamotrigine). Cross reactivity is calculated using the following equation: […]
Also, the cross-reactivity of N-2 oxide at 500 μg/mL is less then 3%.

**Q.** How did the cross-reactivity turn out when C[n+]1nc(-c2cccc(Cl)c2Cl)c(N)nc1N [N-2 methyl] was run?
**A.** do not have any cross-reactivity

**Q.** Which cross-reactivity does the source give for Nc1nc(N)[n+]([O-])nc1-c1cccc(Cl)c1Cl [N-2 oxide] here?
**A.** < 3%
